# Experimental data taken from article PMC4175002, “The Design and Synthesis of Potent and Selective Inhibitors of Trypanosoma brucei Glycogen Synthase Kinase 3 for the Treatment of Human African Trypanosomiasis” (Journal of Medicinal Chemistry, 2014).
# How the values were obtained:
# Assay in all cases: Mammalian kinase profiling (DSTT panel)
# Format in all cases: biochemical
# [1] = target: T1, PRAK (Homo sapiens, UniProt Q8IW41); settings: 10 μM; average percentage of remaining activity
# T1 construct: purchased Division of Signal Transduction Therapy (DSTT), University of Dundee
# T1 sequence (Q8IW41 1-473): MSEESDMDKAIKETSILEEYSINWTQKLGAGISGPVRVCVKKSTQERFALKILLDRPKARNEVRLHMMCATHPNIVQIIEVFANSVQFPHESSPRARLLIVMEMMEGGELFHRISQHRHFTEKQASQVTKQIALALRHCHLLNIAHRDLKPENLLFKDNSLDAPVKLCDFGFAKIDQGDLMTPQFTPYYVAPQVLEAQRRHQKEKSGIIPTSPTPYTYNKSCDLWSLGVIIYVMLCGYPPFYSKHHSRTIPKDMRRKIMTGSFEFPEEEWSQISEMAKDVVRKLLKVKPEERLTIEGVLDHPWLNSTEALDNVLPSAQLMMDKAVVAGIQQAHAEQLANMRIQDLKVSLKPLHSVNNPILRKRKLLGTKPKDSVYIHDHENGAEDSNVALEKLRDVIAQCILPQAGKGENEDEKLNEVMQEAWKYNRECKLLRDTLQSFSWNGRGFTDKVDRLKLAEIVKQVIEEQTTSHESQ
# Procedure: (§1) To assess the selectivity of the aminopyrazole inhibitors, remaining activity at 10 μM concentration was measured for compounds 4f, 4m, and 4y against a panel of 80 human PKs and for compound 9g against 124 human PKs. […] Compound 4m inhibited only two PKs, namely GSK3β and CDK2, at more than 80%.
# (§2) Selected compounds were screened against a panel of mammalian kinases routinely run by the Division of Signal Transduction Therapy (DSTT) at the University of Dundee in duplicate at 10 μM.[32] Enzymes included in the panel and assay conditions are reported in the literature. All biochemical assays are run below the Km^app for the ATP for each enzyme, allowing comparison of inhibition across the panel.
# [2] = target: T2, BTK (Homo sapiens, UniProt Q06187); settings: 10 μM; average percentage of remaining activity
# T2 construct: purchased Division of Signal Transduction Therapy (DSTT), University of Dundee
# Procedure: as §1, §2
# [3] = target: T3, PDK1 (Homo sapiens, UniProt O15530); settings: 10 μM; average percentage of remaining activity
# T3 construct: purchased Division of Signal Transduction Therapy (DSTT), University of Dundee
# T3 sequence (O15530 1-556): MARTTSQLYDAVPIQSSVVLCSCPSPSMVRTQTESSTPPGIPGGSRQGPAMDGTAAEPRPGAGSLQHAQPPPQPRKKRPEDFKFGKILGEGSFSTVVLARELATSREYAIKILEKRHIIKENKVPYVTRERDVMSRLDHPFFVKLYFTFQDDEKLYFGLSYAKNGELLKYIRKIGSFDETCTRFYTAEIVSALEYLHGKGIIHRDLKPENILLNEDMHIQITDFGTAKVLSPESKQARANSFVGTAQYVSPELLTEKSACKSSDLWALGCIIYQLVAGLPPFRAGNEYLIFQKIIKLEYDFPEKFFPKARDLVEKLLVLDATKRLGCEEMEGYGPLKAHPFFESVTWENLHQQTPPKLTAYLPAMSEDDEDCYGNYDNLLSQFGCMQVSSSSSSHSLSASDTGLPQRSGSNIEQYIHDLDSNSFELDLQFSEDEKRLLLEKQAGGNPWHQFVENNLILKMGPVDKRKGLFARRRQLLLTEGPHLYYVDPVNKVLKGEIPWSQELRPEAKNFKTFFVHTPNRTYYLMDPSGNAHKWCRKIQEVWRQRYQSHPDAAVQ
# Procedure: as §1, §2
# [4] = target: T4, SGK1 (Homo sapiens, UniProt O00141); settings: 10 μM; average percentage of remaining activity
# T4 construct: purchased Division of Signal Transduction Therapy (DSTT), University of Dundee
# T4 sequence (O00141 1-431): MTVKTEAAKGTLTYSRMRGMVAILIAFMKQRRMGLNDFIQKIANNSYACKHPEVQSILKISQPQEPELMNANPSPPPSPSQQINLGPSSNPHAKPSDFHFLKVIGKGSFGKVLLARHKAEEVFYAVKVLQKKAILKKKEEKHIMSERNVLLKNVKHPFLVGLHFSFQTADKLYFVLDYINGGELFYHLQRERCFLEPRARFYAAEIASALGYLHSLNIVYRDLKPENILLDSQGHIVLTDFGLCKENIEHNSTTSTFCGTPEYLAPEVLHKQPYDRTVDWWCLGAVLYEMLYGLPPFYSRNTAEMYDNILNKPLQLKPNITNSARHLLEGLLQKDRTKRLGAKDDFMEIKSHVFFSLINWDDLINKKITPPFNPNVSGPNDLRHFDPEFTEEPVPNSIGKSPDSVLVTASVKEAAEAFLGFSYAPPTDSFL
# Procedure: as §1, §2
# [5] = target: T5, EPH-B3 (Homo sapiens, UniProt P54753); settings: 10 μM; average percentage of remaining activity
# T5 construct: purchased Division of Signal Transduction Therapy (DSTT), University of Dundee
# T5 sequence (P54753 34-998): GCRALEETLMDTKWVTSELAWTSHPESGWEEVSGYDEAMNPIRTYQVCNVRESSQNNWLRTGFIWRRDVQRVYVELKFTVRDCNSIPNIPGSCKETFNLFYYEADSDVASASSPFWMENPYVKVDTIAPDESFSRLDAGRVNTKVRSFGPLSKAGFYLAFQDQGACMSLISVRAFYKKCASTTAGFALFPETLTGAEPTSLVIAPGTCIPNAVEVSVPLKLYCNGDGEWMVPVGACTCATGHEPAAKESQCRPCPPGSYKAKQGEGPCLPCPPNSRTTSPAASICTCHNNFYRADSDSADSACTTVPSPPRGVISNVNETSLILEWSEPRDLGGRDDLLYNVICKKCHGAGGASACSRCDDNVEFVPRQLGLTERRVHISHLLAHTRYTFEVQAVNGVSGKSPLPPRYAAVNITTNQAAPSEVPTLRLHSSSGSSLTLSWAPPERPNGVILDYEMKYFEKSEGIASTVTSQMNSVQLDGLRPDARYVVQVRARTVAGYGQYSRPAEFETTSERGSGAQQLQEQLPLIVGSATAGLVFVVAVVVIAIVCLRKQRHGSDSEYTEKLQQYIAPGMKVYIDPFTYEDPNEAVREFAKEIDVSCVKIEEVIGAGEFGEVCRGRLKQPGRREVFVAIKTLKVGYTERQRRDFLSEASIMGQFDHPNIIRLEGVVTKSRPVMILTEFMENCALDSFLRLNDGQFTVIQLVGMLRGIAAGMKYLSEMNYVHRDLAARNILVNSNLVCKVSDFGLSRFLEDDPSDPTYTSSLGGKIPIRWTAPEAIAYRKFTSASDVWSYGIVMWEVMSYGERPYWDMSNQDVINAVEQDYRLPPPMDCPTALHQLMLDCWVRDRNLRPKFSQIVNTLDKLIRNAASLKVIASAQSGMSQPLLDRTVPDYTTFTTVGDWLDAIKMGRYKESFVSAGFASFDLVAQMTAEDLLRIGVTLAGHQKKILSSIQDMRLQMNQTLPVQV
# Procedure: as §1, §2
# [6] = target: T6, YES1 (Homo sapiens, UniProt P07947); settings: 10 μM; average percentage of remaining activity
# T6 construct: purchased Division of Signal Transduction Therapy (DSTT), University of Dundee
# Procedure: as §1, §2
# [7] = target: T7, CK1 (Homo sapiens, UniProt P48730); settings: 10 μM; average percentage of remaining activity
# T7 construct: purchased Division of Signal Transduction Therapy (DSTT), University of Dundee
# Procedure: as §1, §2
# [8] = target: T8, PKBb (Homo sapiens, UniProt P31751); settings: average percentage of remaining activity, read-out: PKBb activity compared to the control
# T8 construct: purchased Division of Signal Transduction Therapy (DSTT), University of Dundee
# Procedure: as §1, §2
# T2 sequence (Q06187 whole entry): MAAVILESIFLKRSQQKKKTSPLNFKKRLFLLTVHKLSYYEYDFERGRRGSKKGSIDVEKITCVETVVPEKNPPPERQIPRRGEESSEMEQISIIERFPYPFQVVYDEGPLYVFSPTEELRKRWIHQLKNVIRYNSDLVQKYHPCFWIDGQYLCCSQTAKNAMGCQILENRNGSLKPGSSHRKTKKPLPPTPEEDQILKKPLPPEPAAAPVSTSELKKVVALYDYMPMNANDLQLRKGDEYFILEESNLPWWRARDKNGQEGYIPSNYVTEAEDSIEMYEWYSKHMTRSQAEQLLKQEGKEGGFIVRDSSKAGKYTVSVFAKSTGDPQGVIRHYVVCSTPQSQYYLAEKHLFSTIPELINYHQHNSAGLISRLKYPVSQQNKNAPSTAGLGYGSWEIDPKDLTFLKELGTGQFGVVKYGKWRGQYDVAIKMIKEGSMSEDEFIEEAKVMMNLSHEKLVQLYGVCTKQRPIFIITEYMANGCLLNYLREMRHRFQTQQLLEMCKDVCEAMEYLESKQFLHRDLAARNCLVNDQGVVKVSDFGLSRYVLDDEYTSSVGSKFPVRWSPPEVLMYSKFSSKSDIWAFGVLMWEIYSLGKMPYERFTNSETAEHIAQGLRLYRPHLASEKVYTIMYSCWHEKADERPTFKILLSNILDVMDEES
# T8 sequence (P31751 whole entry): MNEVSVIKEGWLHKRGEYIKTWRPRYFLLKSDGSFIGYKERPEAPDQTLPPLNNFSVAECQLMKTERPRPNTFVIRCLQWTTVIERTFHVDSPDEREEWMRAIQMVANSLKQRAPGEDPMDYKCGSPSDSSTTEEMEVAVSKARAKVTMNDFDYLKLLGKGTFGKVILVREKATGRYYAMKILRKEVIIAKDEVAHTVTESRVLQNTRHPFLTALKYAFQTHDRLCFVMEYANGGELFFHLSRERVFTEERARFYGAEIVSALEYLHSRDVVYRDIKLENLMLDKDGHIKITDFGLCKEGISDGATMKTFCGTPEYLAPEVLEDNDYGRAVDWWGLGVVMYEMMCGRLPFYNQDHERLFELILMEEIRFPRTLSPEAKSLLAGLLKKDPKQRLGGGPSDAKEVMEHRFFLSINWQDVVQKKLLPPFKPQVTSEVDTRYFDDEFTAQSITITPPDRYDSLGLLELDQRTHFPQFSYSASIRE
# T6 sequence (P07947 whole entry): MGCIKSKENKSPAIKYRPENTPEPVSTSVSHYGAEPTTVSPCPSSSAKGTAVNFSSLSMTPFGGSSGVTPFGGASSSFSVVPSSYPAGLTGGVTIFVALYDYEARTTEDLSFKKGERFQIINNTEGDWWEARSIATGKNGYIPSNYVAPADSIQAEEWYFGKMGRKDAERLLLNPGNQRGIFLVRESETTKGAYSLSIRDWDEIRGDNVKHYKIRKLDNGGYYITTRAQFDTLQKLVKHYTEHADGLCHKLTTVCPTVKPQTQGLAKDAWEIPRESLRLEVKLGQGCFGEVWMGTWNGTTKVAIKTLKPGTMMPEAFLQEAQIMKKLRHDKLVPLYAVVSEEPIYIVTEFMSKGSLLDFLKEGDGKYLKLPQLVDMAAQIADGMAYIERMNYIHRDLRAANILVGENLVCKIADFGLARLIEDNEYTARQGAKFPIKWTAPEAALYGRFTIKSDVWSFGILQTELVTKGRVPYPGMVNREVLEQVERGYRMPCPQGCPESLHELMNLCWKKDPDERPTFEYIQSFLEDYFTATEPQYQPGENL
# T7 sequence (P48730 whole entry): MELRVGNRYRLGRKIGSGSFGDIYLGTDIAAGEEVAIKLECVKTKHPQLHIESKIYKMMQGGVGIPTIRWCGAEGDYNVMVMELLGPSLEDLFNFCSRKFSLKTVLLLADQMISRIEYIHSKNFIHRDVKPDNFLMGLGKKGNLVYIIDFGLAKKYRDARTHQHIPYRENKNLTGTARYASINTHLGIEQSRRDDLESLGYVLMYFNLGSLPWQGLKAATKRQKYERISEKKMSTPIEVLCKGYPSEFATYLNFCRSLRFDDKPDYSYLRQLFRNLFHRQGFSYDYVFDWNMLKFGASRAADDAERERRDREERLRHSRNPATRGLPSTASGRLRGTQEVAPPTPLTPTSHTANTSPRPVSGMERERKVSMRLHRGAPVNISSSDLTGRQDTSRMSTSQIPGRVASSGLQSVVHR
SMILES,PRAK activity compared to the control [1] [%],BTK activity compared to the control [2] [%],PDK1 activity compared to the control [3] [%],SGK1 activity compared to the control [4] [%],EPH-B3 activity compared to the control [5] [%],YES1 activity compared to the control [6] [%],CK1 activity compared to the control [7] [%],remaining activity at 10 µM [8] [%]
"CO[C@H]1CC[C@H](NC(=O)c2n[nH]cc2NC(=O)c2ccccc2)CC1 [Compound 4f, 4-Benzamido-N-(4-methoxycyclohexyl)-1H-pyrazole-3-carboxamide]",52,100,87,89,60,100,55,45
"COc1cccc(OC)c1C(=O)Nc1c[nH]nc1C(=O)NC1CCC(OC)CC1 (stereo not drawn) [Compound 4m, 4-(2,6-Dimethoxybenzamido)-N-(4-methoxycyclohexyl)-1H-pyrazole-3-carboxamide]",92,100,87,92,100,79,88,98
"CO[C@H]1CC[C@H](NC(=O)c2n[nH]cc2NC(=O)c2ccc(-c3ccccc3)o2)CC1 [Compound 4y, N-(4-Methoxycyclohexyl)-4-(5-phenylfuran-2-carboxamido)-1H-pyrazole-3-carboxamide]",65,100,86,81,72,45,25,84
